Assay results as given in patent US12336536B2, “Method for controlling herbicide resistant or tolerant weeds” (BASF Agro B.V., priority 2015, dated 2025).

Key:
PAPRH = experiment: Greenhouse test, solo and combination, post-emergence, 20 DAT; type: in vivo, Papaver rhoeas
Protocol: (§1) The test plants have been seeded, separately for each species, in plastic containers in sandy loamy soil containing 5% of organic matter.
(§2) For the post-emergence treatment, the plants were first grown to the 2 leaf station (GS 12) and applied at GS 12-19 depending on the species. The herbicidal compositions were suspended or emulsified in water as distribution medium and sprayed using finely distributing nozzles.
(§3) The plants have been cultivated due to their individual requirements at 10-25° C. and 20-35° C. The plants were irrigated due to their necessity.
(§4) The racemic mixture (±)-2-exo-(2-Methylbenzyloxy)-1-methyl-4-isopropyl-7-oxabicyclo[2.2.1]heptane was used as herbicide A and formulated as emulsifiable concentrate having an active ingredient concentration of 750 g/l.
(§5) Cyhalofop-butyl (herbicide B.5) was used as an emulsifiable concentrate (EC) formulation having an active ingredient concentration of 200 g/l.
(§6) Metsulfuron-methyl (herbicide B.53) was used as a water soluble granule (SG) formulation having an active ingredient concentration of 20%.
(§7) Bispyribac-sodium (herbicide B.23) was used as a soluble concentrate (SL) formulation having an active ingredient concentration of 408 g/l.
(§8) Quizalofop-P-ethyl (herbicide B.217) was used as a suspension concentrate (SC) formulation having an active ingredient concentration of 106 g/l.
(§9) In the following experiments, the herbicidal activity for the individual herbicide compounds (solo and mixture applications) was assessed 20 days after treatment (DAT).
(§10) The evaluation for the damage on undesired weeds caused by the chemical compositions was carried out using a scale from 0 to 100%, compared to the untreated control plants. Here, 0 means no damage and 100 means complete destruction of the plants.
(§11) The plants used in the greenhouse experiments belonged to the following species:
(§12) E=X+Y−(X·Y/100) • where X=effect in percent using herbicide A at an application rate a; • Y=effect in percent using herbicide B at application rate b; • E=expected effect (in %) of herbicide A+herbicide B at application rates a+b.
(§13) The value E corresponds to the effect (plant damage or injury) which is to be expected if the activity of the individual compounds is additive. If the observed effect is higher than the value E calculated according to the Colby equation, a synergistic effect is present.
(§14) Tables 3 to 6 below relate the herbicidal activity, in greenhouse trials, of the individual actives and the combination applied at different rates and ratios, in post-emergence application at 20 days after treatment (DAT).

GALAP = experiment: as above; type: in vivo, Galium aparine
Protocol: as §1, §2, §3, §4, §5, §6, §7, §8, §9, §10, §11, §12, §13, §14

Question: Which Herbicidal activity (PAPRH; solo application 62.5 g ai/ha) does the source give for “(±)-2-exo-(2-Methylbenzyloxy)-1-methyl-4-isopropyl-7-oxabicyclo[2.2.1]heptane [Herbicide A]” here?
Answer: Its Herbicidal activity is 0%.

Question: What about the Herbicidal activity (PAPRH; solo application 250 g ai/ha) of the same substance?
Answer: The Herbicidal activity was 40%.

Question: What about the Herbicidal activity (PAPRH; solo application 500 g ai/ha) of the same substance?
Answer: Its Herbicidal activity is 60%.

Question: What about the Herbicidal activity (GALAP; solo application 62.5 g ai/ha) of the same substance?
Answer: The Herbicidal activity was 25%.

Question: And the Herbicidal activity (GALAP; solo application 125 g ai/ha)?
Answer: Its Herbicidal activity is 35%.

Question: And the Herbicidal activity (GALAP; solo application 250 g ai/ha)?
Answer: The Herbicidal activity was 35%.

Question: What about the Herbicidal activity (GALAP; solo application 500 g ai/ha) of the same substance?
Answer: Its Herbicidal activity is 45%.
